Drawing on article PMC8268581, “Identification of 3,4-Dihydro-2H,6H-pyrimido[1,2-c][1,3]benzothiazin-6-imine Derivatives as Novel Selective Inhibitors of Plasmodium falciparum Dihydroorotate Dehydrogenase” (International Journal of Molecular Sciences, 2021), this text covers IC50 and EC50 for 1 compound.

Some results are limits rather than exact numbers.

The target of data set [1] is mammalian mitochondrial complexes II–III (Bos taurus, UniProt P00157+P35720+Q3T189+Q95123). Nature of the data set: succinate-cytochrome c reductase (complexes II–III) activity assay. It is filed as biochemical. The conditions noted are these: bovine heart mitochondria, range tested 0.0007 to 22.7 µM; read-out: IC50 Mammalian Mitochondrial CII–III. As for the experimental part:
(§1) Bovine heart mitochondria were prepared as previously described. The NADH-cytochrome c reductase (complexes I–III) and succinate-cytochrome c reductase (complexes II–III) activities were assayed in 384-well plates following an established protocol with small modifications. Complex I–III activity was assayed in a reaction mix containing 50 mM phosphate buffer pH 7.4, 2 mM KCN, 200 µM cytochrome c (cytochrome c from horse heart, Nacalai tesque), and 15 µg/mL mitochondria. Plates containing 1 µL serial dilutions of PfDHODH inhibitors were prepared and mixed with 38 µL of the reaction mix, as described above. The reaction was started by the addition of 5 µL of 2.6 mM NADH, and the assay was performed as described for PfDHODH, but at 550 nm and with 15 min of incubation. Complex II–III activity was assayed similarly to complex I–III activity but with 100 µM cytochrome c and 25 µg/mL mitochondria, and the reaction was started by 10 mM succinate. For both assays, DMSO and 5 µM ascochlorin were used as negative and positive controls, respectively. Assays were performed in triplicate.

Data set [2] is described as follows: Cytotoxicity assay, DLD-1 (Cell Counting Kit-8). It is filed as cell-based. The conditions noted are these: DLD-1 human colorectal adenocarcinoma cells. The procedure: (§2) Human dermal fibroblast cells (HDF, Zenbio, Inc., Durham, NC, USA) were cultured in Dulbecco’s Modified Eagle Medium/Nutrient Mixture F-12 medium (DMEM/F12, Gibco), human pancreatic carcinoma cells (PANC-1, DS Pharma Biomedical, Co., Ltd.) were cultured in DMEM (Gibco), and human colorectal adenocarcinoma cells (DLD-1, Taiho Pharmaceutical Company) were cultured in RPMI-1640 medium (FUJIFILM Wako Pure Chemicals). The culture mediums were supplemented with 10% (v/v) heat-inactivated fetal bovine serum (Gibco) and the cells were maintained at 37 °C under 5% CO2.
(§3) HDF, PANC-1, and DLD-1 were seeded at 2.5 × 10^4 cells/well on a 96-well plate and incubated at 37 °C under 5% CO2 overnight. The cells were then washed with PBS and the medium was replaced with 99 µL of fresh media. Then, 1 µL of the compounds or DMSO was added to the respective wells. As controls, wells containing 1% (v/v) DMSO in column 1 and wells containing only the culture medium in column 12 were used as the negative and positive controls, respectively. After 48 h of incubation, the cells were washed with PBS, and 99 µL of fresh media was replaced, followed by the addition of 10 µL of Cell Counting Kit-8 (Dojindo) to each well. After 3 h of incubation, the absorbance was measured at 450 nm using a SpectraMax®® Paradigm®® Multi-Mode microplate Reader. The calculation of cell viability in the test well was based on the absorbance of control wells according to the manufacturer’s protocol. The mean of quadruplet values was used to calculate the CC50 using GraphPad Prism 8.0 software.

Data set [3] can be described thus: Cytotoxicity assay, PANC-1 (Cell Counting Kit-8). Format: cell-based. The conditions noted are these: PANC-1 human pancreatic carcinoma cells. The procedure: as §2, §3
A further data set has as its target T1, PfDHODH (Plasmodium falciparum, UniProt Q08210).
T1 construct: encoding amino acid residues 158 to 569 fused to a His6-SUMO tag in its N-terminus; His6-SUMO (N, cleaved yes); made in house; host or cells: E. coli BL21 Star (DE3), pETSUMO/PfDHODH
Nature of the data set: PfDHODH inhibition assay (DCIP end-point, 384-well). It is filed as biochemical. The settings on record: recombinant tag-free PfDHODH, 20 min, serial dilutions 0.0007-22.7 µM; read-out: IC50 DHODH Pf. As for the experimental part: The screening of 40,400 compounds was conducted in 384-well plates by adapting the end-point assay reported before. First, 1 µL of 200 µM compound was transferred into 384-well plates using a Benchtop Multi-Pipetter EDR-384SR (Biotech Co., Ltd., Tokyo, Japan). […] Next, 38 µL of assay mix (100 mM HEPES-NaOH pH 7.5, 5% (v/v) glycerol, 150 mM NaCl, 0.05% (v/v) Triton X-100, 15 µM decylubiquinone (dUQ, Sigma), 120 µM 2,6-dichlorophenolindophenol (DCIP, Sigma), and 20 nM PfDHODH) were dispensed into all wells and mixed at 600 rpm for 1 min by a MixMate®® (Eppendorf). The reaction was started by the addition of 5 µL of 1.8 mM L-DHO (Sigma) as the substrate and mixed as described above for 20 s. The absorbance at 600 nm was recorded using a SpectraMax®® Paradigm®® Multi-Mode Microplate Reader (Molecular Devices) before (t0) and after 20 min (t20) incubation at room temperature. The readings at t0 were subtracted from t20, and PfDHODH inhibition was calculated as the inhibition relative to the negative and positive controls in a single-point assay. Hits were defined as compounds inhibiting more than 50% of PfDHODH activity at 4.5 µM. The quality of the screening system was evaluated by calculating statistical parameters: Z′-factor, S/N, S/B, SW, and CV, as previously reported. The IC50 values of the hit compounds were determined using the same assay system containing serial dilutions of each compound in triplicates (22.7, 6.8, 2.27, 0.68, 0.227, 0.068, 0.023, 0.007, 0.002, 0.0007 µM) using GraphPad Prism 8.0 software (GraphPad Software Inc., San Diego, CA, USA).

Another data set concerns the target T2, HsDHODH (Homo sapiens, UniProt Q02127).
T2 construct: made in house
Nature of the data set: HsDHODH counter-assay. It is filed as biochemical. The settings on record: purified recombinant HsDHODH, tested at 4.5 µM; read-out: IC50 DHODH Hs. The procedure: Selected hit compounds from PfDHODH screening were tested for potential inhibition against HsDHODH at 4.5 µM. The HsDHODH used in this study was purified as previously reported. The HsDHODH assay was performed similarly to that for PfDHODH, but in an assay mix consisting of 50 mM Tris-HCl pH 8.0, 0.1% (v/v) Triton X-100, 2 mM potassium cyanide (KCN, Wako), 60 µM dUQ, and 120 µM DCIP, with the reaction started by the addition of 200 µM L-DHO (final concentration) in triplicate. For this assay, DMSO was used as a negative control and 10 µM of lapachol was used as a positive control (100% inhibition). The relative inhibition was calculated as described above.

The next data set relates to P. falciparum 3D7. Nature of the data set: In vitro antimalarial assay (PfLDH/diaphorase). Format: cell-based. The conditions noted are these: Plasmodium falciparum, growth inhibition, 72 h, 0.0003 to 10 µM, read-out: EC50 Pf3D7. As for the experimental part:
This assay was conducted using human red blood cells (RBC) following the guidelines of the ethics committee of Nagasaki University (permission no. 19). Human RBC was obtained from the Japanese Red Cross Society. The P. falciparum 3D7 strain was cultured in 2% hematocrit type O human RBC in RPMI-1640 medium (Gibco) supplemented with 23.8 mM sodium bicarbonate (Wako), 50 mg/L hypoxanthine (Wako), 25 mg/L gentamycin (Sigma), and 0.5% (w/v) AlbuMAX®® II (Gibco) under a 5% O2, 5% CO2, and 90% N2 atmosphere at 37 °C. Parasites were synchronized with 5% (w/v) D-sorbitol (Wako).
Synchronized ring-stage parasites at 0.3% parasitemia and 2% hematocrit were cultured in a 384-well plate at 25 µL with test compounds at a final concentration in the range of 0.0003 to 10 µM with a fixed DMSO concentration of 0.4% (v/v). Parasite growth was monitored by the diaphorase-coupled P. falciparum lactate dehydrogenase (PfLDH) assay, as previously described. After 72 h, 70 µL of the assay solution (150 mM lithium L-lactate (Wako), 0.05 mg/mL 3-acetylpyridine adenine dinucleotide (Oriental Yeast Co., Ltd., Tokyo, Japan), 0.2 mg/mL nitro blue tetrazolium (Wako), 1 unit/mL diaphorase, and 100 mM Tris-HCl pH 8.0) were mixed with the parasite culture and incubated at room temperature for 40 min, and the generated nitro blue formazan was measured at 650 nm using a SpectraMax®® Paradigm®® Multi-Mode Microplate Reader. […] The EC50 was calculated using GraphPad Prism 8.0 software from the mean of quadruplets values.

Data set [4] is described as follows: Cytotoxicity assay, HDF (Cell Counting Kit-8). Format: cell-based. The settings on record: human dermal fibroblast (HDF) cells, normal human dermal fibroblasts. The procedure:
as §2, §3

For data set [5], the target named is mammalian mitochondrial complexes I–III (Bos taurus, UniProt P00157+P03887+P17694+P42026). Nature of the data set: NADH-cytochrome c reductase (complexes I–III) activity assay. It is filed as biochemical. The conditions noted are these: bovine heart mitochondria, range tested 0.0007 to 22.7 µM; read-out: IC50 Mammalian Mitochondrial CI–III. As for the experimental part: as §1

T2 sequence (Q02127 whole entry): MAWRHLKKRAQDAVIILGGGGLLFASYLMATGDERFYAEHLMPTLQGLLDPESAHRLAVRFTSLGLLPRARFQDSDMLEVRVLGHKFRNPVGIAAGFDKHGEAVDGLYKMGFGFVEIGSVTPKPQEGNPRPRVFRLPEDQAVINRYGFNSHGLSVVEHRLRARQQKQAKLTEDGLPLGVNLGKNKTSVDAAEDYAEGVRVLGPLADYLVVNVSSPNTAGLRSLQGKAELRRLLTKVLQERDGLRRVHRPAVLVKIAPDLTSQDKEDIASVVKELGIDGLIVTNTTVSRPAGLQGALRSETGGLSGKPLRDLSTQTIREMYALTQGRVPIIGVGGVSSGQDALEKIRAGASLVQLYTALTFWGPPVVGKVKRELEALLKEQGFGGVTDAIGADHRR
T1 sequence (Q08210 158-569): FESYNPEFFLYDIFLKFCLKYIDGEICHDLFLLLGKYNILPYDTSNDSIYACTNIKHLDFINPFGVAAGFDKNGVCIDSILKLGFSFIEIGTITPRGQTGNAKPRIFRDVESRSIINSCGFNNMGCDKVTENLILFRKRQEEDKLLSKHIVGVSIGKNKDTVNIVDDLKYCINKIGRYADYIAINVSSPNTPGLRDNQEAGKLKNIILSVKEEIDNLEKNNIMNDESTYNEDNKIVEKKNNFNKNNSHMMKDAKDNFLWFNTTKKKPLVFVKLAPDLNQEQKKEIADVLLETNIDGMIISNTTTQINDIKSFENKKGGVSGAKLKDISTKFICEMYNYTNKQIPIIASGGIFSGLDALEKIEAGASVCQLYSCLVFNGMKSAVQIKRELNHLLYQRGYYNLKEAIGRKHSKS

Regarding `N=C1Sc2cc(-c3ccc(C(N)=O)cc3)ccc2C2=NCCCN12` [Compound 16], the half-maximal inhibitory concentration (IC50) was over 22.7 µM in data set [1], 1.82 ± 0.08 µM at PfDHODH, over 4.5 µM on HsDHODH and over 22.7 µM in data set [5]. Also, the 50% effective concentration (EC50) at 48 h in data set [2], in data set [3] and in data set [4] was over 10 µM each time. Further, in the data set on P. falciparum 3D7, the 50% effective concentration (EC50) is over 10 µM.
